In patent US6011037A, “Thiazole derivatives with phosphodiesterase-inhibiting action” (Byk Gulden Lomberg Chemische Fabrik GmbH, priority 1996, dated 2000):
Where a name gives a salt, the structure may show the parent alone.

Test system: PDE IV
Test: Inhibition of the PDE IV activity (method of Bauer and Schwabe, adapted to microtiter plates)
Type: biochemical

SMILES	-log IC50
COc1ccc(-c2nc(-c3cccnc3)cs2)c2c1OC1(CCCC1)C2 [Compound 1, 3-[2-(2,3-Dihydro-7-methoxybenzofuran-2-spiro-1'-cyclopentan-4-yl)thiazol-4-yl]pyridine]	7.75
COc1ccc(-c2nc(-c3ccncc3)cs2)c2c1OC1(CCCC1)C2 [Compound 2, 4-[2-(2,3-Dihydro-7-methoxybenzofuran-2-spiro-1'-cyclopentan-4-yl)thiazol-4-yl]pyridinehydrobromide]	7.09
